Key:
[1] = system: Adjuvant arthritis (AA) in female Lewis rats; assay: Treatment of adjuvant arthritis in rats; type: in vivo, rat; conditions: orally once a day for 7 days (day 7-14)
Protocol: Adjuvant arthritis (AA) was induced in female Lewis rats by the intracutaneous injection (base of the tail) of 0.1 mL of a 10 mg/mL bacterial suspension made from ground, heat-killed Mycobacterium tuberculosis H37Ra suspended in incomplete Freund's adjuvant. Rats were given a test compound orally once a day for 7 days (day 7-14), starting day 7 after mycobacterium induction. The development of polyarthritis was monitored daily by macroscopic inspection and assignment of an arthritis index to each animal, during the critical period (days 10 to 25 post-immunization).
The intensity of polyarthritis was scored according to the following scheme: (a) Grade each paw from 0 to 3 based on erythema, swelling, and deformity of the joints: 0 for no erythema or swelling; 0.5 if swelling is detectable in at least one joint; 1 for mild swelling and erythema; 2 for swelling and erythema of both tarsus and carpus; and 3 for ankylosis and bony deformity. Maximum score for all 4 paws is thus 12. (b) Grade for other parts of the body: for each ear, 0.5 for redness and another 0.5 if knots are present; 1 for connective tissue swelling (saddle nose); and 1 for the presence of knots or kinks in the tail. The highest possible arthritic index is 16.
Experiments with the AA model were repeated four times. […] The arthritis score used in this model is a reflection of the inflammatory state of the structures monitored and the results therefore show the ability of the test compound to provide relief for this aspect of the pathology.

[2] = system: IL-12; assay: Human in vitro assay: inhibition of IL-12 production in stimulated human PBMC or THP-1 cells (ELISA); type: cell-based; conditions: read-out: IC50 Range (in vitro IC50 for IL-12)
Description: The biological activities of a compound of the invention can be evaluated by a number of cell-based assays. One of such assays can be conducted using cells from human peripheral blood mononuclear cells (PBMC) or human monocytic cell line (THP-1). The cells are stimulated with a combination of human interferon-γ (IFNγ) and lipopolysaccharide or a combination of IFNγ and Staphylococcus aureus Cowan I in the presence of a test compound. The level of inhibition of IL-12 production can be measured by determining the amount of p70 by using a sandwich ELISA assay with anti-human IL-12 antibodies. IC50 of the test compound can then be determined. Specifically, PBMC or THP-1 cells are incubated with the test compound. Cell viability was assessed using the bioreduction of MTS [3-(4,5-dimethylthiazol-2-yl)-5-(3-carboxymethoxyphenyl)-2-(4-sulfophenyl)-2H-tetrazolium] (Promega, Madison, Wis.).
8. Reagents. Staphylococcus aureus Cowan I (SAC) was obtained from Calbiochem (La Jolla, Calif.), and lipopolysaccharide (LPS, Serratia marscencens) was obtained from Sigma (St. Louis, Mo.). Human and mouse recombinant IFNγ were purchased from Boehringer Mannheim (Mannheim, Germany) and Pharmingen (San Diego, Calif.), respectively.
9. Human In Vitro Assay. Human PBMC were isolated by centrifugation using Ficoll-Paque (Pharmacia Biotech, Uppsala, Sweden) and prepared in RPMI medium supplemented with 10% fetal calf serum (FCS), 100 U/mL penicillin, and 100 μg/mL streptomycin. PBMC were plated in wells of a 96-well plate at a concentration of 5×10^5 cells/well, and primed by adding IFNγ (30 U/mL) for 22 h and stimulated by adding LPS (1 μg/mL), or by adding IFNγ (100 U/mL) and then stimulated by adding SAC (0.01%). A test pyrimidine compound was dissolved in DMSO, and added to wells of the 96-well plate. The final DMSO concentration was adjusted to 0.25% in all cultures, including the compound-free control. Human THP-1 cells were plated in wells, primed by adding IFNγ (100 U/mL) for 22 h and stimulated by adding SAC (0.025%) in the presence of different concentrations of the pyrimidine compound. Cell-free supernatants were taken 18 h later for measurement of cytokines. Cell viability was assessed using the bioreduction of MTS. Cell survival was estimated by determining the ratio of the absorbance in compound-treated groups versus compound-free control.
10. The supernatant was assayed for the amount of […], IL-12p70, or IL-10 by using a sandwich ELISA with anti-human antibodies, i.e., a Human IL-12 p40 ELISA kit from R&D Systems (Berkeley, Calif.), and a Human IL-12 p70 or IL-10 ELISA kit from Endogen (Cambridge, Mass.). Assays were based on the manufacturer's instructions.
The biological activities of compounds of the invention were tested on human PBMC or THP-1 cells.

| Structure (SMILES) | percent reduction in arthritic score ([1]; 20 mg/kg dose) | percent reduction in arthritic score ([1]; 50 mg/kg dose) [% reduction] | IC50 [2] [nM] |
| --- | --- | --- | --- |
| Cc1ccc2c(c1)/C(=N/Nc1cc(N3CCOCC3)nc(OCCN3CCOCC3)n1)CCO2 [Compound 2, N-(6-Methyl-chroman-4-ylidene)-N′-[6-morpholin-4-yl-2-(2-morpholin-4-yl-ethoxy)-pyrimidin-4-yl]-hydrazine] | 21% reduction | 32 | < 1000 |
| Cc1ccc2c(c1)/C(=N/Nc1cc(N3CCOCC3)nc(OCCN3CCOCC3)n1)CC2 [Compound 3, N-(6-Methyl-indan-1-ylidene)-N′-[6-morpholin-4-yl-2-(2-morpholin-4-yl-ethoxy)-pyrimidin-4-yl]-hydrazine] | 25% reduction |  | < 1000 |
| COc1ccc2c(c1)/C(=N/Nc1cc(N3CCOCC3)nc(OCCN3CCOCC3)n1)CC2 [Compound 9, N-(6-Methoxy-indan-1-ylidene)-N′-[6-morpholin-4-yl-2-(2-morpholin-4-yl-ethoxy)-pyrimidin-4-yl]-hydrazine] | 24% |  | < 1000 |

Reference: patent publication US20060281711A1, “IL-12 modulatory compounds” (Synta Pharmaceuticals Corp., priority 2005, published 2006)
